Laboratory results from the Kinase Knowledgebase extract (Sharma et al. 2016).

Biological target: PIK3CD (Human) (UniProt O00329)
Test: Enzyme Assay

PIK3CD (Human), sequence (O00329 whole entry, looked up): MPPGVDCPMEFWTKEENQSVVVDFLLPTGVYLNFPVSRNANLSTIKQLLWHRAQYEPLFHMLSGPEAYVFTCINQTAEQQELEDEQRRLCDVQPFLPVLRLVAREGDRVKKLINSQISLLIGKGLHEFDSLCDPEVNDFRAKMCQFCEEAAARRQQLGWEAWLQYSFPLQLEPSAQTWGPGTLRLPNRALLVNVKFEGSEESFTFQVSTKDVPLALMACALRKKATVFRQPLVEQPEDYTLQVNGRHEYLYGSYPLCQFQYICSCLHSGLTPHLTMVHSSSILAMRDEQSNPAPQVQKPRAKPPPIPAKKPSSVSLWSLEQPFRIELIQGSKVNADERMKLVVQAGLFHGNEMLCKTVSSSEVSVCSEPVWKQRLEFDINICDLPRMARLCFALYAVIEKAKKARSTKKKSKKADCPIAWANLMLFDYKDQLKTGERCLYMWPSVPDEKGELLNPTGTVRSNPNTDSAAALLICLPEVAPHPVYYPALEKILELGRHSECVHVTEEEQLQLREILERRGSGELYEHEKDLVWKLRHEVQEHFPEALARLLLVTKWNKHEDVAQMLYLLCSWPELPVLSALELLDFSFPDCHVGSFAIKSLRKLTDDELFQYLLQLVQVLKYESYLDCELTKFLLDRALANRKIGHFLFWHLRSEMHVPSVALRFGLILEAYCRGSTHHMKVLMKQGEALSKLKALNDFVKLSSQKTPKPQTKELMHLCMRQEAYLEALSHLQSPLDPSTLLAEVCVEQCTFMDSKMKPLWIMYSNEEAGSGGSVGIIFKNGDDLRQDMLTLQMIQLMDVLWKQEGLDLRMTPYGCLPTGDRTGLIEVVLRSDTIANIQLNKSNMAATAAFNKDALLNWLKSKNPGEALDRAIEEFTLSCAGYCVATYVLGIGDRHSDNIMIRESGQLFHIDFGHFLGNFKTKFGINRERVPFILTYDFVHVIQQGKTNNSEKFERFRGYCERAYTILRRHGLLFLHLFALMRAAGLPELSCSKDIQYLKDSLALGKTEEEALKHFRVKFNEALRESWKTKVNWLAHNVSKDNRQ

Structure (SMILES)	IC50
CCC(=O)N1CC[C@H](Oc2ncnc3[nH]c(-c4cnn(CC)c4C)nc23)C1	24 nM
CCC(=O)N1CC[C@H](Sc2ncnc3c2nc(-c2cnn(CC)c2C)n3C)C1	11 nM
CCn1ncc(-c2nc3c(O[C@H]4CCN(C(=O)N[C@H](C)c5ccccc5)C4)ncnc3n2C)c1C	630 nM
CCn1c(-c2cnc(C)nc2)nc2c(O[C@@H]3CN(C(=O)C4CC4)C[C@H]3OC)ncnc21	41 nM
CCC(=O)N1CC[C@H](Oc2ncnc3c2nc(C2CC2)n3C)C1	580 nM
CCn1ncc(-c2nc3c(O[C@H]4CCN(C(=O)OCC(C)C)C4)ncnc3n2C)c1C	17 nM
CCC(=O)N1CC[C@H](Oc2ncnc3c2nc(-c2ccc4[nH]ncc4c2)n3C)C1	44 nM
CCn1c(-c2cnc(C)nc2)nc2c(O[C@H]3CCN(C(=O)N(C)C4CC4)C3)ncnc21	28 nM
CCn1ncc(-c2nc3c(O[C@@H]4CCCN(C(=O)OC(C)(C)C)C4)ncnc3n2C)c1C	4600 nM
CCC(=O)N1CC[C@H](Oc2ncnc3c2nc(-c2ccc4cn[nH]c4c2)n3C)C1	7.2 nM
CCn1c(-c2cnc(C)nc2)nc2c(O[C@H]3CCN(c4ccc(F)cc4)C3)ncnc21	18 nM
CCn1c(-c2cnc(C)nc2)nc2c(O[C@H]3CCN(C(=O)c4cocn4)C3)ncnc21	14 nM
CCn1c(-c2cnc(C)nc2)nc2c(O[C@H]3C[C@H](NS(=O)(=O)CC)C3)ncnc21	150 nM
CCn1ncc(-c2nc3c(O[C@H]4CCN(S(=O)(=O)c5ccc(-c6ccccc6)cc5)C4)ncnc3n2C)c1C	4600 nM
CCn1ncc(-c2nc3c(OC4CCN(C(=O)c5cnco5)C4)ncnc3n2C)c1C (stereo not drawn)	17 nM
CCn1ncc(-c2nc3c(CC4CCN(C(=O)OC(C)(C)C)C4)ncnc3n2C)c1C (stereo not drawn)	560 nM
CCn1ncc(-c2nc3c(O[C@H]4CCN(c5ncccn5)C4)ncnc3n2C)c1C	21 nM
CCn1c(-c2cnc(C)nc2)nc2c(O[C@H]3CCN(c4cc(C)ccn4)C3)ncnc21	4.1 nM
Cn1c(-c2ccc(-n3cccn3)cc2)nc2c(O[C@H]3CCN(C(=O)OC(C)(C)C)C3)ncnc21	30 nM
CCn1ncc(-c2nc3c(OC4CC(C)N(C(=O)OC(C)(C)C)C4)ncnc3n2C)c1C (stereo not drawn)	1300 nM
CCn1ncc(-c2nc3c(O[C@H]4CCN(c5cncc(C)n5)C4)ncnc3n2C)c1C	26 nM
CCn1ncc(-c2nc3c(O[C@H]4CCN(C(=O)c5cc(C)nn5C)C4)ncnc3n2C)c1C	19 nM
Cc1ncc(-c2nc3c(O[C@H]4CCN(C(=O)OC(C)(C)C)C4)ncnc3n2C)n1C	28 nM
CCn1c(-c2cnc(C)nc2)nc2c(O[C@H]3CCN(c4cccnc4)C3)ncnc21	10 nM

Structure (SMILES)	IC50
CCn1ncc(-c2nc3c(O[C@H]4CC[C@H](NC(=O)OC(C)(C)C)C4)ncnc3n2C)c1C	140 nM
CCn1c(-c2cnc(C)nc2)nc2c(O[C@H]3CCN(c4nccs4)C3)ncnc21	44 nM
CCC(=O)N1CC[C@H](Oc2ncnc3c2nc(-c2ccc4[nH]ccc4c2)n3C)C1	37 nM
CCn1ncc(-c2nc3c(O[C@H]4CCN(c5ccccn5)C4)ncnc3n2C)c1C	680 nM
CCn1ncc(-c2nc3c(O[C@H]4CCN(c5nccn6cnnc56)C4)ncnc3n2C)c1C	30 nM
CCn1ncc(-c2nc3c(O[C@H]4CCN(Cc5ccc[nH]5)C4)ncnc3n2C)c1C	440 nM
CCC(=O)N1CC[C@H](Oc2ncnc3c2nc(-c2cnc(OC)c(C#N)c2)n3C)C1	8.4 nM
CCn1ncc(-c2nc3c(O[C@H]4CCN(C(=O)c5ocnc5C)C4)ncnc3n2C)c1C	15 nM
CCn1ncc(-c2nc3c(O[C@@H]4CC[C@H](NC(=O)C5CCOCC5)C4)ncnc3n2C)c1C	290 nM
CCn1ncc(-c2nc3c(O[C@H]4CCN(C(=O)c5cccc6ccccc56)C4)ncnc3n2C)c1C	67 nM
CCn1ncc(-c2nc3c(O[C@H]4CCN(S(=O)(=O)c5ccc6ccccc6c5)C4)ncnc3n2C)c1C	220 nM
CCn1c(-c2cnc(OC)c(F)c2)nc2c(O[C@H]3CCN(C(=O)C(C)C)C3)ncnc21	< 1 nM
CCn1c(-c2cnc(C)nc2)nc2c(O[C@H]3CCN(C(=O)C4CCOC4)C3)ncnc21 (stereo partly drawn)	5.8 nM
CCn1c(-c2cnc(C)nc2)nc2c(O[C@H]3CCN(C(=O)C=C(C)C)C3)ncnc21	4.4 nM
Cc1n[nH]cc1-c1nc2c(O[C@H]3CCN(C(=O)OC(C)(C)C)C3)ncnc2n1C	13 nM
CCn1c(N2CCC(C)CC2)nc2c(O[C@H]3CCN(C(=O)OC(C)(C)C)C3)ncnc21	380 nM
CCn1ncc(-c2nc3c(OC4CCN(C(=O)c5ccc6ccccc6c5)C4)ncnc3n2C)c1C (stereo not drawn)	28 nM
CCn1ncc(-c2nc3c(O[C@H]4CCN(C(=O)Oc5ccc6ccccc6c5)C4)ncnc3n2C)c1C	110 nM
CCn1ncc(-c2nc3c(S(=O)(=O)[C@H]4CCN(C(=O)OC(C)(C)C)C4)ncnc3n2C)c1C	160 nM
CCn1ncc(-c2nc3c(O[C@H]4CCNC4)ncnc3n2C)c1C	2100 nM
CCn1c(-c2cnc(OC)nc2)nc2c(O[C@H]3CCN(C(=O)C4CC4)C3)ncnc21	6.3 nM
CCn1ncc(-c2nc3c(O[C@H]4CCN(C(=O)c5ncoc5C)C4)ncnc3n2C)c1C	7.2 nM
CCn1ncc(-c2nc3c(O[C@H]4CCN(C(=O)c5oncc5C)C4)ncnc3n2C)c1C	5.1 nM
CCn1ncc(-c2nc3c(O[C@H]4CCN(C(=O)c5cnoc5C5CC5)C4)ncnc3n2C)c1C	79 nM

Structure (SMILES)	IC50
CCn1ncc(-c2nc3c(OC4CCN(C(=O)c5ccccc5)C4)ncnc3n2C)c1C (stereo not drawn)	68 nM
CCn1ncc(-c2nc3c(O[C@H]4CCN(c5cc(C(F)(F)F)ccn5)C4)ncnc3n2C)c1C	37 nM
CCn1c(-c2cnc(C)nc2)nc2c(O[C@H]3CCN(C(=O)c4ccn(C)n4)C3)ncnc21	3 nM
CCn1ncc(-c2nc3c(O[C@H]4CCN(C(=O)Oc5ccc(C)cc5)C4)ncnc3n2C)c1C	340 nM
CCn1ncc(-c2nc3c(O[C@H]4CCN(C(=O)c5cnn6cccnc56)C4)ncnc3n2C)c1C	11 nM
CCn1c(-c2cnc(OC)c(F)c2)nc2c(O[C@H]3CCN(C(=O)C4CC4)C3)ncnc21	< 1 nM
CCn1ncc(-c2nc3c(O[C@H]4CCN(C(=O)c5ccnn5C(C)C)C4)ncnc3n2C)c1C	23 nM
CCn1ncc(-c2nc3c(O[C@H]4CCN(C(=O)c5cn6cccnc6n5)C4)ncnc3n2C)c1C	100 nM
CCn1ncc(-c2nc3c(OC4CCN(C(=O)OC(C)(C)C)CC4)ncnc3n2C)c1C	610 nM
CCn1ncc(-c2nc3c(O[C@H]4CCN(C(=O)OC)C4)ncnc3n2C)c1C	12 nM
CCn1c(-c2cnc(C)nc2)nc2c(O[C@H]3CCN(C(=O)N4CC(OC)C4)C3)ncnc21	1.8 nM
CCn1ncc(-c2nc3c(O[C@H]4CCN(C(=O)c5nc6cc(Cl)ccn6n5)C4)ncnc3n2C)c1C	860 nM
CCn1ncc(-c2nc3c(O[C@H]4CCN(C(=O)c5ccc(N6CCN(C)CC6)cc5)C4)ncnc3n2C)c1C	110 nM
CCC(=O)N1CC[C@H](Oc2ncnc3c2nc(C(F)(F)F)n3C)C1	430 nM
CCC(=O)N1CC[C@H](Oc2ncnc3c2nc(-c2ccc(C(F)(F)F)nc2)n3C)C1	99 nM
CCn1ncc(-c2nc3c(O[C@H]4CCN(C(C)=O)C4)ncnc3n2C)c1C	56 nM
CCn1ncc(-c2nc3c(O[C@H]4CCN(C(=O)c5c(C)nn(C)c5C)C4)ncnc3n2C)c1C	74 nM
CCC(=O)N1CC[C@H](Oc2ncnc3c2nc(-c2cnc(OC)c(C)c2)n3C)C1	2.1 nM
CCn1c(-c2cnc(C)nc2)nc2c(O[C@H]3CCN(C(=O)N4CC(C)(OC)C4)C3)ncnc21	34 nM
Cn1c(-c2cncc3ccccc23)nc2c(O[C@H]3CCN(C(=O)OC(C)(C)C)C3)ncnc21	320 nM
CCC(=O)N1CC[C@H](Oc2ncnc3c2nc(-c2cncc(N)c2)n3C)C1	5.7 nM
CCn1ncc(-c2nc3c(O[C@H]4CCN(C(=O)c5nc(C(C)(C)O)no5)C4)ncnc3n2C)c1C	110 nM
Cn1c(-c2cnn3cccnc23)nc2c(O[C@H]3CCN(C(=O)OC(C)(C)C)C3)ncnc21	210 nM
CCn1ncc(-c2nc3c(O[C@H]4CCN(C(=O)c5[nH]ncc5C)C4)ncnc3n2C)c1C	3.6 nM

Structure (SMILES)	IC50
CCn1c(-c2ccc(OC)nc2)nc2c(O[C@H]3CCN(C(=O)C4CCOCC4)C3)ncnc21	1.6 nM
CCn1ncc(-c2nc3c(O[C@H]4CCN(C(=O)OC(C)C)C4)ncnc3n2C)c1C	8.1 nM
CCOC(=O)N1CC[C@H](Sc2ncnc3c2nc(-c2cnn(CC)c2C)n3C)C1	37 nM
CCn1ncc(C(=O)N2CC[C@H](Oc3ncnc4c3nc(-c3cnn(CC)c3C)n4C)C2)c1C	29 nM
CCC(=O)N1CC[C@H](Oc2ncnc3c2nc(-c2cnn(CC)c2C)n3CC(F)F)C1	3.1 nM
CCn1ncc(-c2nc3c(O[C@H]4CCN(C(=O)c5cnn(C(C)C)c5)C4)ncnc3n2C)c1C	30 nM
CCn1ncc(-c2nc3c(O[C@@H]4CC[C@H](NC(=O)OC(C)(C)C)C4)ncnc3n2C)c1C	400 nM
Cn1c(-c2ccc(N3CCCC3)nc2)nc2c(O[C@H]3CCN(C(=O)OC(C)(C)C)C3)ncnc21	590 nM
CCn1c(-c2cnc(C)nc2)nc2c(O[C@H]3CCN(c4cncnc4)C3)ncnc21	47 nM
CCn1c(-c2cnc3[nH]ccc3c2)nc2c(O[C@H]3CCN(C(=O)C4CC4)C3)ncnc21	< 1 nM
CCn1c(-c2cnc(C)nc2)nc2c(O[C@H]3CCN(C(=O)[C@H]4C[C@H]5CC[C@@H]4C5)C3)ncnc21	1.2 nM
CCn1ncc(-c2nc3c(O[C@H]4CCN(C(=O)OC(C)(C)C)C4)ncnc3n2C)c1C	4.3 nM
CCn1c(-c2cnc(C)nc2)nc2c(O[C@H]3CCN(c4ccccc4)C3)ncnc21	9.1 nM
CCn1c(-c2cnc(C)nc2)nc2c(O[C@H]3CCN(c4cnccn4)C3)ncnc21	32 nM
CCn1c(-c2cnc(C)nc2)nc2c(O[C@H]3CCN(C(=O)N4CC5CC5C4)C3)ncnc21 (stereo partly drawn)	5.7 nM
CCn1ncc(-c2nc3c(O[C@H]4CCN(C(=O)c5cn[nH]c5)C4)ncnc3n2C)c1C	16 nM
CCn1ncc(-c2nc3c(OC4CCN(C(=O)C5CCCC5)CC4)ncnc3n2C)c1C	550 nM
CCn1ncc(-c2nc3c(O[C@H]4CCN(C(=O)c5oc(C)nc5C)C4)ncnc3n2C)c1C	3.7 nM
CCn1c(-c2cnc(C)nc2)nc2c(O[C@H]3CCN(C(=O)OCCCN(C)C)C3)ncnc21	37 nM
CCC(=O)N1CC[C@H](Oc2ncnc3c2nc(Oc2cc(F)cc(OC)c2)n3C)C1	110 nM
CCn1c(-c2cnc(C)nc2)nc2c(O[C@H]3CCN(C(=O)C4CCOCC4)C3)ncnc21	8.5 nM
